Like-named read-outs stand apart in the source and are kept apart here.
Tested on: MDA-MB-231 triple negative breast cancer cells
Conditions: paclitaxel 5 mg/kg
Text: After implanting MDA-MB-231 triple negative breast cancer cells to the nude mouse, the tumor has been grown to the 200 mm^3 volume. […] The tumor growth has been observed for 27 days.
The tumor volume and shape in the nude mouse have been observed for 27 days.

Which “volume of tumor, Mean ± S.E.” value (day 0) does the source give for CC(=O)O[C@H]1C(=O)[C@@]2(C)[C@H]([C@H](OC(=O)c3ccccc3)[C@]3(O)C[C@H](OC(=O)[C@H](O)[C@@H](NC(=O)c4ccccc4)c4ccccc4)C(C)=C1C3(C)C)[C@]1(OC(C)=O)CO[C@@H]1C[C@@H]2O [Paclitaxel, paclitaxel, reference compound] here?
Its value is 277.1 ± 16.2.

And the “volume of tumor, Mean ± S.E.” value (day 3)?
Its value is 354.3 ± 6.3.

What about the “volume of tumor, Mean ± S.E.” value (day 6) of the same molecule?
Its value is 437.9 ± 20.8.

And the “volume of tumor, Mean ± S.E.” value (day 12)?
The value was 716.8 ± 72.9.

And the “volume of tumor, Mean ± S.E.” value (day 15)?
The value was 906.2 ± 88.2.

What about the “volume of tumor, Mean ± S.E.” value (day 18) of the same molecule?
The value was 1161.2 ± 86.4.

What about the “volume of tumor, Mean ± S.E.” value (day 21) of the same molecule?
The value was 1421.7 ± 82.6.

What about the “volume of tumor, Mean ± S.E.” value (day 24) of the same molecule?
Its value is 1760.2 ± 83.8.

What about the “volume of tumor, Mean ± S.E.” value (day 27) of the same molecule?
The value was 2136.0 ± 125.9.

Reference: US10285979B2, “Breast cancer therapeutic agent containing 5′-hydroxy-5-nitro-indirubin-3′-oxime as active ingredient” (ANYGEN CO., LTD., priority 2016, dated 2019)
